Literature values, collected in article PMC12650809, “Evolving Therapeutic Landscape of ROS1-Positive Non-Small Cell Lung Cancer: An Updated Review” (Current Oncology, 2025).
Where two headings read alike, the source gives them in different places. Marks after values point to notes of the source that are not given here. Each block holds one molecule with its values, some of them ahead of it.

Experiments:
[1] = tested on: ROS1^L2086F; design: method as in PMID 38070596; settings: for resistance or sensitivity conferred by ROS1^L2086F: L2086F alone or in combination with G2032R or S1986F, preclinical models
[2] = tested on: ROS1-positive NSCLC
[3] = tested on: ROS1^G2032R; design: method as in PMID 38070596; settings: solvent-front substitution
[4] = tested on: advanced ROS1-positive NSCLC; design: method as in PMID 31669155
[5] = tested on: ROS1-positive NSCLC; design: method as in earlier work; settings: WCLC 2025 Abstract 4540
[6] = tested on: ROS1-positive NSCLC; design: method as in PMID 35227966
[7] = tested on: ROS1-positive NSCLC; design: method as in doi:10.1200/JCO.2024.42.16_suppl.8519; settings: 32 TKI-naïve patients
[8] = tested on: ROS1-positive NSCLC; design: method as in PMID 31584608
[9] = tested on: ROS1-positive NSCLC; remark: listed apart in the source
[10] = tested on: ROS1-positive NSCLC; design: method as in PMID 30978502; settings: 34 patients
[11] = tested on: ROS1-positive NSCLC; design: method as in PMID 29596029; settings: 127 patients
[12] = tested on: advanced ROS1-positive NSCLC
[13] = tested on: advanced ROS1-positive NSCLC; remark: listed apart in the source
[14] = previously treated with crizotinib
[15] = after at least one prior ROS1-targeted TKI
[16] = isolated intracranial progression on crizotinib, n = 18

Structure (SMILES): COc1cc2nccc(Oc3ccc(NC(=O)C4(C(=O)Nc5ccc(F)cc5)CC4)cc3)c2cc1OC [cabozantinib]
- resistance or sensitivity conferred by ROS1^L2086F [1]: potentially retaining sensitivity
- resistance or activity with L2086F ([1]; L2086F, ATP-binding pocket): preclinical efficacy

Structure (SMILES): C[C@H]1Oc2cc(cnc2N)-c2c(nn(C)c2C#N)CN(C)C(=O)c2ccc(F)cc21 [Lorlatinib, lorlatinib]
- Notable AEs: cognitive effects [2]: 27%
- Notable AEs: dizziness [2]: 12%
- Notable AEs: hypercholesterolemia [2]: 80%
- Notable AEs: mood disorders [2]: 16%
- Notable AEs: weight gain [2]: 23%
- Discontinuation for AEs (%) ([2]; WCLC 2025 Abstract 4540): 1%
- Main Grade ≥ 3 AEs: hypercholesterolemia ([2]; grade ≥ 3): 15%
- Main Grade ≥ 3 AEs: hypertriglyceridemia ([2]; grade ≥ 3): 19%
- Main Grade ≥ 3 AEs: weight gain ([2]; grade ≥ 3): 7%
- resistance or sensitivity with ROS1^G2032R [3]: high-level resistance
- ORR ([4]; 21 TKI-naïve patients): 62%
- median DOR ([4]; TKI-naïve patients): 25.3 months
- median PFS ([4]; TKI-naïve patients): 21.0 months
- intracranial ORR ([4]; TKI-naïve, BMs at baseline): 64%
- efficacy against ROS1^G2032R mutation ([4]; patients with secondary resistance mutations to crizotinib): limited efficacy
- treatment discontinuation due to AEs ([4]; pivotal trial): 1%
- ORR [4, 14]: 35%
- intracranial ORR [4, 14]: 50%
- median DOR [4, 14]: 13.8 months
- activity in patients harboring ROS1^K1991E and ROS1^S1986F mutations ([4]; secondary resistance mutations to crizotinib): showed activity in some patients
- ORR if G2032R Mutation (%) ([5]; TKI-pretreated patients with G2032R): 0%
- IC-ORR (%) ([5]; TKI-pretreated patients): 50%
- mPFS (Months) ([5]; TKI-pretreated patients): 8.5 Months
- ORR ([6]; 80 patients after at least one prior ROS1-targeted TKI): 45%
- intracranial ORR [6, 15]: 72%
- median OS [6, 15]: 19.6 months
- median PFS [6, 15]: 7.1 months
- median intracranial DOR ([6]; non-irradiated brain metastases): 20.6 months
- treatment discontinuation due to AEs ([6]; real-world cohort): 13%
- resistance or sensitivity conferred by ROS1^L2086F [1]: cross-resistance
- ORR [7]: 69%
- median PFS [7]: 35.8 months

- grade 4 or 5 events [12]: no grade 4 or 5 events
Structure (SMILES): C[C@@H](Oc1cc(-c2cnn(C3CCNCC3)c2)cnc1N)c1c(Cl)ccc(F)c1Cl [Crizotinib, crizotinib]
- Notable AEs: diarrhea [2]: 44%
- Notable AEs: nausea [2]: 40%
- Notable AEs: visual disturbances [2]: 82%
- Discontinuation for AEs (%) ([2]; WCLC 2025 Abstract 4540): <1%
- Notable AEs: peripheral edema ([2]; WCLC 2025 Abstract 4540): 40%
- Main Grade ≥ 3 AEs: hypophosphatemia ([2]; grade ≥ 3): Hypophosphatemia (10%), neutropenia (10%)
- Main Grade ≥ 3 AEs: neutropenia ([2]; grade ≥ 3): Hypophosphatemia (10%), neutropenia (10%)
- ORR [8]: 69.4%
- median PFS [8]: 5.5 months
- TKI-Naive ORR (%) ([9]; TKI-naïve patients): 72%
- ORR [10]: 70%
- median PFS [10]: 20 months
- ORR [11]: 72%
- median PFS [11]: 15.9 months
- resistance or sensitivity with ROS1^G2032R [3]: high-level resistance
- 4-year survival probability [12]: 51%
- AEs leading to permanent treatment discontinuation [12]: No AEs led to permanent treatment discontinuation
- median PFS [12]: 19.3 months
- median duration of response (DOR) [12]: 24.7 months
- median overall survival (OS) [12]: 51.4 months
- median time to response [12]: 7.9 weeks
- ORR ([12]; 53 patients): 72%
- complete responses (number) ([12]; 53 patients): 6
- partial responses (number) ([12]; 53 patients): 32
- diarrhea ([12]; treatment-related AEs): 44%
- nausea ([12]; treatment-related AEs): 40%
- peripheral edema ([12]; treatment-related AEs): 40%
- visual disturbances ([12]; treatment-related AEs): 82%
- resistance or sensitivity conferred by ROS1^L2086F [1]: cross-resistance

Structure (SMILES): CN1CCN(c2ccc(C(=O)Nc3n[nH]c4ccc(Cc5cc(F)cc(F)c5)cc34)c(NC3CCOCC3)c2)CC1 [Entrectinib, entrectinib]
- TKI-Naive ORR (%) ([9]; TKI-naïve patients): 68%
- mPFS (Months) ([9]; TKI-naïve patients): 15.7 Months
- IC-ORR (%) ([9]; TKI-naïve patients evaluable for intracranial ORR): 80 ^a %
- resistance or sensitivity with ROS1^G2032R [3]: high-level resistance
- ORR ([13]; 168 TKI-naïve patients): 68%
- complete responses ([13]; 168 TKI-naïve patients): 13%
- median DOR ([13]; 168 TKI-naïve patients): 20.5 months
- median OS ([13]; 168 TKI-naïve patients): 47.8 months
- median PFS ([13]; 168 TKI-naïve patients): 15.7 months
- median intracranial DOR ([13]; baseline BMs): 12.9 months
- intracranial ORR ([13]; baseline BMs with measurable disease): 80%
- global ORR [13, 16]: 11%
- intracranial ORR [13, 16]: 19%
- median PFS [13, 16]: 4.7 months
- resistance or sensitivity conferred by ROS1^L2086F [1]: cross-resistance
